Experimental data published in patent publication US9480712B2, “Biomedical composition” (INDUSTRIAL TECHNOLOGY RESEARCH INSTITUTE, priority 2013, dated 2016).

Experiments:
U87MC cells = experiment: Cytotoxicity analysis (MTT); type: cell-based; conditions: Homo sapiens, U-87 MG, U87 cells, 48 hours
Procedure: U87 cells were inoculated in a 96-well culture plate with a density of 1×10^4 cells/well, and cultured in a 37° C., 5% CO2 incubator for 1 day. […] Next, the old medium was removed from the culture plate and the culture plate was washed with medium three times. After the medium was removed from the culture plate, 100 μL of 0.5 mg/mL MTT reagent was added to the plate, and the culture plate was incubated at 37° C. for 4 hours. Then, the old medium was removed and 100 μL of 0.1 N HCl/isopropanol was added to the culture plate to dissolve the precipitate. Finally, the culture plate was placed in a ELISA reader to determine the absorbance at wavelength 570 nm, and the absorbance was converted into cell viability based on the following formula: Cell viability (%)=Intensity of sample/Intensity of control×100%.

[1] = Concentration of Pt in rat plasma by ICP-AES, pharmacokinetic parameters; type: in vivo, rats; conditions: 0.5 mg/rat
Procedure: The rats were grouped, and 0.5 mg/rat oxaliplatin, Formulations PtHC101, PtHC305 and PtHC603, were respectively administered. After that, at different time points the blood samples were sampled from the rats, the concentrations of Pt in the plasma were analyzed by inductively coupled plasma with atomic emission spectroscopy (ICP-AES), and the original drug concentration in blood (CO), half-life (T ½), area under curve (AUC), volume of distribution (Vz), and clearance (Cl) of each formulation were calculated.

[2] = tested on: HT-29 cells, human colon adenocarcinoma cell line; experiment: Tumor growth inhibition in nude mice implanted with HT-29 cells; type: in vivo; conditions: 2 mg Pt/kg, tail vein, twice a week, 6 doses; day 14 to day 42
Procedure: HT-29 cells, human colon adenocarcinoma cell line, were implanted into the backs of nude mice. After the size of the tumor reached 100-200 mm^3, the mice were administered hyaluronic acid derivative/DACHPt complex nano-carriers formed by Formulation PtHC604 (2 mg Pt/kg), oxaliplatin (2 mg Pt/kg) or 10% sucrose through tail vein injections twice a week, for a total of 6 doses. The size changes of the tumors were measured, regularly, and tumor growth inhibition (TGI) rate was calculated. Calculation formula is as follows: Tumor growth inhibition (TGI) (%)=[1−(Δ Tumor volume for drug treatment group/Δ Tumor volume for vehicle treatment group)]×100

| Compound | IC50 (U87MC cells) | AUClast [1] | C0 [1] | Cl_pred [1] | HL_Lambda_z [1] | Vz_pred [1] | tumor growth inhibition (TGI) rate [2] |
| --- | --- | --- | --- | --- | --- | --- | --- |
| COc1cccc2c1C(=O)c1c(O)c3c(c(O)c1C2=O)C[C@@](O)(C(=O)CO)C[C@@H]3O[C@H]1C[C@H](N)[C@H](O)[C@H](C)O1 [Doxorubicin, doxorubicin] | 100 nM | – | – | – | – | – | – |
| O=C1[O][Pt]2([NH][C@@H]3CCCC[C@H]3[NH]2)[O]C1=O [Oxaliplatin, oxaliplatin] | – | 4202.6 ± 1280.2 ng·h/mL | 6317.9 ± 4430.9 ng/mL | 3.695 ± 1.13 mL/min/kg | 8.2 ± 1.1 h | 2.6208 ± 0.8685 L/kg | 42±8% |
